Patent US11505553B2, “2-(Het)aryl-substituted fused heterocycle derivatives as pesticides” (Bayer Aktiengesellschaft, priority 2017, dated 2022)

Experiments:
Assay type in all cases: in vivo
[1] = tested on: Ctenocephalides felis; test: Ctenocephalides felis in vitro contact test with adult cat fleas; details: application rate 5 μg/cm^2 (=500 g/ha), after 48 h, adult cat fleas dead or moribund, read-out: efficacy
Method: For the coating of the test tubes, 9 mg of active ingredient are first dissolved in 1 ml of acetone p.a. and then diluted to the desired concentration with acetone p.a. 250 μl of the solution are distributed homogeneously on the inner walls and the base of a 25 ml glass tube by turning and rocking on an orbital shaker (rocking rotation at 30 rpm for 2 h). With 900 ppm of active ingredient solution and internal surface area 44.7 cm^2, given homogeneous distribution, an area-based dose of 5 μg/cm^2 is achieved. After the solvent has evaporated off, the tubes are populated with 5-10 adult cat fleas (Ctenocephalides felis), sealed with a perforated plastic lid and incubated in a horizontal position at room temperature and ambient humidity. After 48 h, efficacy is determined. To this end, the tubes are stood upright and the fleas are knocked to the base of the tube. Fleas which remain motionless at the base or move in an uncoordinated manner are considered to be dead or moribund. […] 100% efficacy means that all the fleas were dead or moribund. 0% efficacy means that no fleas were harmed.

[2] = tested on: Ctenocephalides felis; test: Ctenocephalides felis oral test; details: 48 h, application rate 100 ppm in citrated cattle blood, after 2 days, read-out: efficacy (kill)
Method: Solvent: dimethyl sulfoxide To produce a suitable active ingredient formulation, 10 mg of active ingredient are mixed with 0.5 ml of dimethyl sulfoxide. Dilution with citrated cattle blood gives the desired concentration. About 20 unfed adult cat fleas (Ctenocephalides felis) are placed into a chamber which is closed at the top and bottom with gauze. A metal cylinder whose bottom end is closed with parafilm is placed onto the chamber. The cylinder contains the blood/active ingredient formulation, which can be imbibed by the fleas through the parafilm membrane. After 2 days, the kill in % is determined. 100% means that all of the fleas have been killed; 0% means that none of the fleas have been killed.

[3] = tested on: Lucilia cuprina; test: Lucilia cuprina test; details: 48 h, application rate 100 ppm, L1 larvae, after 2 days, read-out: efficacy (kill)
Method: Solvent: dimethyl sulfoxide To produce a suitable active ingredient formulation, 10 mg of active ingredient are mixed with 0.5 ml of dimethyl sulfoxide, and the concentrate is diluted with water to the desired concentration. About 20 L1 larvae of the Australian sheep blowfly (Lucilia cuprina) are transferred into a test vessel containing minced horsemeat and the active ingredient formulation of the desired concentration. After 2 days, the kill in % is determined. 100% means that all the larvae have been killed; 0% means that no larvae have been killed.

[4] = tested on: Meloidogyne incognita; test: Meloidogyne incognita test; details: 336 h, application rate 20 ppm, formation of galls on lettuce after 14 days, read-out: nematicidal efficacy
Method: Solvent: 125.0 parts by weight of acetone To produce a suitable active ingredient formulation, 1 part by weight of active ingredient is mixed with the stated amount of solvent and the concentrate is diluted to the desired concentration with water. Vessels are filled with sand, active ingredient solution, an egg/larvae suspension of the southern root-knot nematode (Meloidogyne incognita) and lettuce seeds. The lettuce seeds germinate and the plants develop. The galls develop on the roots. After 14 days, the nematicidal efficacy in % is determined by the formation of galls. 100% means that no galls were found; 0% means that the number of galls on the treated plants corresponds to the untreated control.

[5] = tested on: Myzus persicae; test: Myzus persicae oral test; details: 120 h, after 5 days, read-out: efficacy; for pest or weed control at 0.8 ppm: application rate 0.8 ppm; for pest or weed control at 4 ppm: application rate 4 ppm
Method: Solvent: 100 parts by weight of acetone To produce a suitable active ingredient formulation, 1 part by weight of active ingredient is dissolved with the stated parts by weight of solvent and made up to the desired concentration with water. 50 μl of the active ingredient preparation are transferred into microtitre plates and made up to a final volume of 200 μl with 150 μl of IPL41 insect medium (33%+15% sugar). Subsequently, the plates are sealed with parafilm, which a mixed population of green peach aphids (Myzus persicae) within a second microtitre plate is able to puncture and imbibe the solution. After 5 days, the efficacy in % is determined. 100% means that all the aphids have been killed; 0% means that no aphids have been killed.

[6] = tested on: Myzus persicae; test: Myzus persicae spray test; details: foliar, 120 h, Chinese cabbage leaf discs, after 5 days, read-out: efficacy; for pest or weed control at 20 g/ha: application rate 20 g/ha; for pest or weed control at 100 g/ha: application rate 100 g/ha
Method: (§1) Solvent: 78 parts by weight of acetone • • 1.5 parts by weight of dimethylformamide Emulsifier: alkylaryl polyglycol ether To produce a suitable active ingredient formulation, 1 part by weight of active ingredient is dissolved with the specified parts by weight of solvent and made up to the desired concentration with water containing an emulsifier concentration of 1000 ppm. To produce further test concentrations, the formulation is diluted with emulsifier-containing water. Discs of Chinese cabbage leaves (Brassica pekinensis) infested by all stages of the green peach aphid (Myzus persicae) are sprayed with an active ingredient formulation of the desired concentration. After 5 days, the efficacy in % is determined. 100% means that all the aphids have been killed; 0% means that no aphids have been killed.

[7] = tested on: Phaedon cochleariae; test: Phaedon cochleariae spray test; details: 168 h, application rate 100 g/ha, larvae, after 7 days, read-out: efficacy
Method: as §1, with “Solvent: 78.0” for “Solvent: 78”, “pekinensis)” for “pekinensis) infested by all stages of the green peach aphid (Myzus persicae)”, “desired concentration and, after drying, populated with larvae of the mustard beetle (Phaedon cochleariae).” for “desired concentration.”, “After 7” for “After 5”, “the beetle larvae” for “the aphids”, “no beetle larvae” for “no aphids”

[8] = tested on: Phaedon cochleariae; test: Phaedon cochleariae spray test (PHAECO), contrastive examples; details: 168 h, 7 dat, read-out: % efficacy
Method: Solvent: 78.0 parts by weight of acetone • • 1.5 parts by weight of dimethylformamide Emulsifier: alkylaryl polyglycol ether To produce an appropriate active ingredient formulation, 1 part by weight of active ingredient is dissolved with the stated parts by weight of solvent and made up with water containing an emulsifier concentration of 1000 ppm until the desired concentration is attained. For production of further test concentrations, the mixture is diluted with emulsifier-containing water. Discs of chinese cabbage leaves (Brassica pekinensis) are sprayed with an active ingredient formulation of the desired concentration and, after drying, populated with larvae of the mustard beetle (Phaedon cochleariae). After the desired time, the efficacy in % is determined. 100% means that all beetle larvae have been killed; 0% means that no beetle larvae have been killed.

[9] = tested on: Myzus persicae; test: Myzus persicae spray test (MYZUPE), contrastive examples; details: 120 h, 5 dat, read-out: % efficacy
Method: as §1, with “78.0” for “78”, “chinese” for “Chinese”, “the desired time,” for “5 days,”, “all” for “all the”

[10] = tested on: Myzus persicae; test: Myzus persicae spray test (MYZUPE S), bell pepper plants; details: 144 h, 6 dat, read-out: % efficacy
Method: Solvent: 14 parts by weight of dimethylformamide Emulsifier: alkylaryl polyglycol ether To produce an appropriate active ingredient formulation, 1 part by weight of active ingredient is dissolved with the stated parts by weight of solvent and made up with water containing an emulsifier concentration of 1000 ppm until the desired concentration is attained. For production of further test concentrations, the mixture is diluted with emulsifier-containing water. If addition of ammonium salts or/and penetrants is required, these are each added to the preparation solution in a concentration of 1000 ppm. Bell pepper plants (Capsicum annuum) severely infested by the green peach aphid (Myzus persicae) are treated by spraying with the active ingredient formulation in the desired concentration. After the desired time, the kill in % is determined. 100% means that all animals have been killed; 0% means that no animals have been killed.

[11] = tested on: Nilaparvata lugens; test: Nilaparvata lugens spray test (NILALU); details: 96 h, 4 dat, read-out: % efficacy
Method: Solvent: 52.5 parts by weight of acetone • 7 parts by weight of dimethylformamide
Emulsifier: alkylaryl polyglycol ether
To produce an appropriate active ingredient formulation, 1 part by weight of active ingredient is dissolved with the stated parts by weight of solvent and made up with water containing an emulsifier concentration of 1000 ppm until the desired concentration is attained. For production of further test concentrations, the mixture is diluted with emulsifier-containing water. If addition of ammonium salts or/and penetrants is required, these are each added to the preparation solution in a concentration of 1000 ppm.
Rice plants (Oryza sativa) are sprayed with an active ingredient formulation of the desired concentration and then populated with larvae of the rice cicada (Nilaparvata lugens).
After the desired time, the efficacy in % is determined. 100% means that all rice cicadas have been killed; 0% means that no rice cicadas have been killed.

[12] = tested on: Boophilus microplus; test: Boophilus microplus injection test; details: application rate 20 μg/animal, laying of fertile eggs assessed after 7 days
Method: Solvent: dimethyl sulfoxide To produce a suitable active ingredient formulation, 10 mg of active ingredient are mixed with 0.5 ml of solvent and the concentrate is diluted to the desired concentration with solvent. 1 μl of the active ingredient solution is injected into the abdomen of 5 engorged adult female cattle ticks (Boophilus microplus). The animals are transferred into dishes and kept in a climate-controlled room. Efficacy is assessed after 7 days by laying of fertile eggs. Eggs which are not visibly fertile are stored in a climate-controlled cabinet until the larvae hatch after about 42 days. An efficacy of 100% means that none of the ticks has laid any fertile eggs; 0% means that all the eggs are fertile.

`CCS(=O)(=O)c1ccc(NC(=O)NC)nc1-c1nc2cc(C(F)(F)F)nnc2n1C` [Example I-1, 1-{5-(ethylsulfonyl)-6-[7-methyl-3-(trifluoromethyl)-7H-imidazo[4,5-c]pyridazin-6-yl]pyridin-2-yl}-3-methylurea] showed a pest or weed control at 5 µg/cm2, 500 g/ha [1] of 100%, a pest or weed control at 100 ppm [2] of 100% and a pest or weed control at 100 ppm [3] of 100%. The pest or weed control at 20 ppm [4] was 100%, the pest or weed control at 0.8 ppm [5] was 90% and the pest or weed control at 4 ppm [5] was 100%. For the same compound, the pest or weed control at 20 g/ha [6] was 90%, the pest or weed control at 100 g/ha [6] was 100% and the pest or weed control at 100 g/ha [7] was 100%. For the same compound, the Emax at 4 g/ha ([8]; 4 g/ha) was 67%, the Emax at 20 g/ha [8] was 83% and the Emax at 100 g/ha [8] was 100%. It also gave an Emax at 4 g/ha [9] of 90% and an Emax at 0.8 ppm [10] of 70%.

`CCS(=O)(=O)c1ccc(NC(=O)N(C)C)nc1-c1nc2cc(C(F)(F)F)nnc2n1C` [Example I-2] was tested, and the pest or weed control at 5 µg/cm2, 500 g/ha [1] was 100%, the pest or weed control at 100 ppm [2] was 100% and the pest or weed control at 100 ppm [3] was 100%. For the same compound, the pest or weed control at 20 ppm [4] was 100%, the pest or weed control at 0.8 ppm [5] was 100% and the pest or weed control at 4 ppm [5] was 100%. It also gave a pest or weed control at 20 g/ha [6] of 100%, a pest or weed control at 100 g/ha [6] of 90% and a pest or weed control at 100 g/ha [7] of 100%. The Emax at 20 g/ha [8] was 83%, the Emax at 100 g/ha [8] was 100% and the Emax at 0.8 ppm [10] was 90%.

`CCS(=O)(=O)c1ccc(N(C)C(=O)NC)nc1-c1nc2cc(C(F)(F)F)nnc2n1C` [Example I-3] gave a pest or weed control at 5 µg/cm2, 500 g/ha [1] of 100%, a pest or weed control at 100 ppm [2] of 100% and a pest or weed control at 100 ppm [3] of 90%. The pest or weed control at 20 ppm [4] was 100%, the pest or weed control at 0.8 ppm [5] was 100% and the pest or weed control at 4 ppm [5] was 100%. The pest or weed control at 20 g/ha [6] was 100%, the pest or weed control at 100 g/ha [7] was 100% and the Emax at 4 g/ha [11] was 70%.

In the case of `CNC(=O)N(C)c1ccc(S(C)(=O)=O)c(-c2nc3cc(C(F)(F)F)nnc3n2C)n1` [Example I-6], the efficacy [12] is reported as 80%, the pest or weed control at 100 ppm [2] is reported as 100% and the pest or weed control at 0.8 ppm [5] is reported as 100%. For the same compound, the pest or weed control at 4 ppm [5] was 100%, the pest or weed control at 100 g/ha [6] was 90% and the Emax at 0.8 ppm [10] was 85%.
